Experimental data as given in patent publication EP0233461B2, “4,5,6-Substituted-2-pyrimidinamines” (AMERICAN CYANAMID COMPANY, priority 1986, dated 1987).
Where a name gives a salt, the structure may show the parent alone.

Test system: human basophils
Assay: Inhibition of histamine release from immunologically stimulated human basophils
Type: cell-based
Conditions: Homo sapiens, concentration causing 50% inhibition of histamine release, by linear regression; active if IC50 ≦ 48 µM; read-out: IC50
Method: The blood is allowed to sediment at room temperature in two 50 ml polycarbonate centrifuge tubes until a sharp interface develops between the red cells and plasma (60-90 minutes). The plasma (top) layer from each tube is withdrawn by pipet and transferred to respective 50 ml polycarbonate tubes. The plasma is centrifuged for 8 minutes at 110X G at 4°C. The supernatant is carefully poured off as completely as possible and the cell button is resuspended in 2-3 ml of Tris-A buffer using a siliconized Pasteur pipet. The resuspension is accomplished by drawing the liquid gently in an out of the pipet, with the tip below the liquid until an even suspension of cells is obtained. Sufficient Tris-A buffer is then added to bring the volume in the tube to about 45 ml and the tube is centrifuged at 110X G for 8 minutes at 4°C. The supernatant is poured off and the cell button is resuspended and centrifuged as described above. The supernatant is poured off and the cell button is suspended in 2-3 ml of Tris-ACM buffer to make the final volume sufficient to allow addition to the reaction tubes. Reaction tubes containing anti-IgE or antigens, either alone or with test compound in a total volume of 0.2 ml are prepared and placed in a 37°C bath. The cells are warmed to 37°C and frequently swirled to ensure an even suspension, while 1.0 ml aliquots are added to each reaction tube. The tubes are then incubated for 60 minutes at 37°C, vortexing the tubes gently every 15 minutes to keep the cells evenly suspended. When the reaction is complete, the tubes are centrifuged at 4°C for 10 minutes at 1500 rpm to sediment the cells. […] Blanks and totals are included in each test. The blanks have cells and all reagents except antigen or anti-IgE. The totals contain 0.24 ml of 8% perchloric acid, one ml of cells and 0.2 ml of buffer. All samples are then centrifuged to remove the precipitate protein. […] The automated system consists of the following Technicon Autoanalyzer II components Sampler IV, Dual-Speed Proportioning Pump III, Fluoronephelometer with a narrow pass primary filter 7-60 and a secondary filter 3-74, Recorder, and Digital Printer. The manifold used is the one described by Siraganian vide supra, with the following modifications: the dialyzer is omitted; all pumping tubes pass through a single proportioning pump with large capacity and twice the volume of sample is taken for anaylsis. The automated chemistry consists of the following steps: Extraction from alkaline saline into butanol, back extraction into dilute hydrochloric acid by addition of heptane, reaction of histamine with o-phthaldialdehyde (OPT) at high pH and conversion of the OPT adduct to a stable fluorophore with phosphoric acid. The reaction product is then passed through the fluorometer. The full scale response is adjusted to 50 ng histamine base with a threshold sensitivity of approximately 0.5 ng. The instrument blank (wash) is substracted from the ng histamine of each sample. Then the ng histamine of each sample is divided by the mean of the three totals (cells lysed with perchloric acid) to obtain percent release. Control samples contain antigen but no test compound. Blank (or spontaneous release) samples contain neither antigen nor test compound. The mean of the blanks (three replicates) is subtracted from the percent release for controls and test compounds.

Compound	IC50
CC(=O)Nc1ccc(Nc2nccc(-c3cccnc3)n2)cc1C	1.8 µM
CC(=O)c1cccc(Nc2nccc(-c3cccnc3)n2)c1 [1-[3-[[4-(3-Pyridinyl)-2-pyrimidinyl]amino]-phenyl]ethanone]	4.1 µM
CON=C(C)c1ccc(Nc2nccc(-c3cccnc3)n2)cc1 [1-[4-[[4-(3-Pyridinyl)-2-pyrimidinyl]amino]phenyl]ethanone, O-methyloxime]	5.1 µM
CC(=NO)c1ccc(Nc2nccc(-c3cccnc3)n2)cc1 [1-[4-[[4-(3-Pyridinyl)-2-pyrimidinyl]amino]phenyl]ethanone, oxime]	11.4 µM
CC(=NNC(N)=O)c1ccc(Nc2nccc(-c3cccnc3)n2)cc1 [2-[1-[4-[[4-(3-Pyridinyl)-2-pyrimidinyl]amino]phenyl]ethylidene]hydrazinecarboxamide]	8.1 µM
Oc1ccccc1Nc1nccc(-c2cccnc2)n1 [2-[[4-(3-Pyridinyl)-2-pyrimidinyl]amino]phenol]	23.5 µM
NS(=O)(=O)c1cccc(Nc2nccc(-c3ccccn3)n2)c1 [3-[[4-(2-Pyridinyl)-2-pyrimidinyl]amino]benzenesulfonamide]	0.7 µM
CCOC(=O)c1cccc(Nc2nccc(-c3ccccn3)n2)c1 [3-[[4-(2-Pyridinyl)-2-pyrimidinyl]amino]benzoic acid, ethyl ester]	3 µM
NS(=O)(=O)c1cccc(Nc2nccc(-c3cccnc3)n2)c1 [3-[[4-(3-Pyridinyl)-2-pyrimidinyl]amino]benzenesulfonamide]	0.2 µM
CCOC(=O)c1cccc(Nc2nccc(-c3cccnc3)n2)c1 [3-[[4-(3-Pyridinyl)-2-pyrimidinyl]amino]benzoic acid, ethyl ester]	20.3 µM
NS(=O)(=O)c1cccc(Nc2nccc(-c3ccncc3)n2)c1 [3-[[4-(4-Pyridinyl)-2-pyrimidinyl]-amino]benzenesulfonamide]	0.5 µM
Cc1cccc(Nc2nccc(-c3cc4ccccc4[nH]3)n2)c1 [4-(1H-Indol-2-yl)-N-(3-methylphenyl)-2-pyrimidinamine]	2.2 µM
c1ccc(Nc2nccc(-c3c[nH]c4ccccc34)n2)cc1 [4-(1H-Indol-3-yl)-N-phenyl-2-pyrimidinamine]	3 µM
Cc1cc(C)cc(Nc2nccc(-c3cc(C)oc3C)n2)c1 [4-(2,5-Dimethyl-3-furanyl)-N-(3,5-dimethylphenyl)-2-pyrimidinamine]	4.1 µM
Cc1cccc(Nc2nccc(-c3cc(C)oc3C)n2)c1 [4-(2,5-Dimethyl-3-furanyl)-N-(3-methylphenyl)-2-pyrimidinamine]	28.5 µM
CCc1ccc(Nc2nccc(-c3cc(C)oc3C)n2)cc1 [4-(2,5-Dimethyl-3-furanyl)-N-(4-ethylphenyl)-2-pyrimidinamine]	19.2 µM
Cc1cc(-c2ccnc(Nc3ccccc3)n2)c(C)o1 [4-(2,5-Dimethyl-3-furanyl)-N-phenyl-2-pyrimidinamine]	2 µM
COc1cccc(Nc2nccc(-c3cc4ccccc4o3)n2)c1 [4-(2-Benzofuranyl)-N-(3-methoxyphenyl)-2-pyrimidinamine]	1.2 µM
Cc1cnc(Nc2ccccc2)nc1-c1ccco1 [4-(2-Furanyl)-5-methyl-N-phenyl-2-pyrimidinamine]	17.7 µM
COc1cccc(Nc2nccc(-c3ccco3)n2)c1 [4-(2-Furanyl)-N-(3-methoxyphenyl)-2-pyrimidinamine]	0.3 µM
Cc1cccc(Nc2nccc(-c3ccco3)n2)c1 [4-(2-Furanyl)-N-(3-methylphenyl)-2-pyrimidinamine]	3.5 µM

Compound	IC50
COc1ccc(Nc2nccc(-c3ccco3)n2)cc1 [4-(2-Furanyl)-N-(4-methoxyphenyl)-2-pyrimidinamine]	< 48 µM
c1cc(Nc2nccc(-c3ccco3)n2)cc(-n2ccnc2)c1 [4-(2-Furanyl)-N-[3-(1H-imidazol-1-yl)phenyl]-2-pyrimidinamine]	0.8 µM
FC(F)(F)c1cccc(Nc2nccc(-c3ccco3)n2)c1 [4-(2-Furanyl)-N-[3-(trifluoromethyl)phenyl]-2-pyrimidinamine]	< 48 µM
c1coc(-c2ccnc(Nc3ccc(-n4ccnc4)cc3)n2)c1 [4-(2-Furanyl)-N-[4-(1H-imidazol-1-yl)phenyl]-2-pyrimidinamine]	2.2 µM
CN1CCN(c2ccc(Nc3nccc(-c4ccco4)n3)cc2)CC1 [4-(2-Furanyl)-N-[4-(4-methyl-1-piperazinyl)phenyl]-2-pyrimidin-amine]	1.8 µM
c1ccc(Nc2nccc(-c3ccco3)n2)cc1 [4-(2-Furanyl)-N-phenyl-2-pyrimidinamine]	48 µM
FC(F)(F)c1cccc(Nc2nccc(-c3ccccn3)n2)c1 [4-(2-Pyridinyl)-N-[3-(trifluoromethyl)phenyl]-2-pyrimidinamine]	2.9 µM
FC(F)(F)c1cccc(Nc2nccc(-c3cccnc3)n2)c1 [4-(3-Pyridinyl)-N-[3-(trifluoromethyl)phenyl]-2-pyrimidinamine, hydrochloride]	0.7 µM
Cc1cc(C)c(Nc2nccc(-c3ccncc3)n2)c(C)c1 [4-(4-Pyridinyl)-N-(2,4,6-trimethylphenyl)-2-pyrimidinamine]	10.5 µM
FC(F)(F)c1cccc(Nc2nccc(-c3ccncc3)n2)c1 [4-(4-Pyridinyl)-N-[3-(trifluoro-methyl)phenyl]-2-pyrimidinamine]	32 µM
Cc1cccc(Nc2nccc(-c3ccc(C)o3)n2)c1 [4-(5-Methyl-2-furanyl)-N-(3-methylphenyl)-2-pyrimidinamine]	2 µM
Cc1cc(-c2ccc(C)s2)nc(Nc2ccccc2)n1 [4-Methyl-6-(5-methyl-2-thienyl)-N-phenyl-2-pyrimidinamine]	24.8 µM
Cc1cc(-c2ccccn2)nc(Nc2ccccc2)n1 [4-Methyl-N-phenyl-6-(2-pyridinyl)-2-pyrimidinamine]	26.8 µM
COc1ccc(Nc2nccc(-c3cc[n+](C)cc3)n2)cc1 [4-[2-[(4-Methoxyphenyl)amino]-4-pyrimidinyl]-1-methylpyridinium, iodide]	33.3 µM
NS(=O)(=O)c1ccc(Nc2nccc(-c3ccccn3)n2)cc1 [4-[[4-(2-Pyridinyl)-2-pyrimidinyl]amino]-benzenesulfonamide]	4.5 µM
CCOC(=O)c1ccc(Nc2nccc(-c3cccnc3)n2)cc1 [4-[[4-(3-Pyridinyl)-2-pyrimidinyl]amino]-benzoic acid, ethyl ester]	12.4 µM
O=C(O)c1ccc(Nc2nccc(-c3cccnc3)n2)cc1 [4-[[4-(3-Pyridinyl)-2-pyrimidinyl]amino]benzoic acid]	7.6 µM
Oc1ccc(Nc2nccc(-c3cccnc3)n2)cc1 [4-[[4-(3-Pyridinyl)-2-pyrimidinyl]amino]phenol]	5.1 µM
NS(=O)(=O)c1ccc(Nc2nccc(-c3cccnc3)n2)cc1 [4-[[4-(3-pyridinyl)-2-pyrimidinyl]amino]benzenesulfonamide]	0.2 µM
Oc1ccc(Nc2nccc(-c3ccncc3)n2)cc1 [4-[[4-(4-Pyridinyl)-2-primidinyl]amino]phenol]	3.3 µM
COC(=O)c1ccc(Nc2nccc(-c3ccncc3)n2)cc1 [4-[[4-(4-Pyridinyl)-2-pyrimidinyl]amino]benzoic acid, methyl ester]	27.5 µM

Same assay, conditions: concentration causing 50% inhibition of histamine release, by linear regression; active if IC50 ≦ 48 µM; read-out: IC50

Compound	IC50
Cc1cccc(Nc2nccc(-c3ccco3)n2)c1 [4-(2-Furanyl)-N-[3-(methylphenyl)]-2-pyrimidinamine, sulfate]	3 µM

Same assay, conditions: concentration causing 50% inhibition of histamine release, by linear regression; active if IC50 ≦ 48 µM; sulfate

Compound	IC50
Cc1cnc(Nc2ccccc2)nc1-c1ccco1 [4-(2-Furanyl)-5-methyl-N-phenyl-2-pyrimidinamine, sulfate]	5 µM
FC(F)(F)c1cccc(Nc2nccc(-c3ccccn3)n2)c1 [4-(2-Pyridinyl)-N-[3-(trifluoromethyl)phenyl]-2-pyrimidinamine, sulfate]	3 µM
FC(F)(F)c1cccc(Nc2nccc(-c3cccnc3)n2)c1 [4-(3-Pyridinyl)-N-[3-(trifluoromethyl)phenyl]-2-pyrimidinamine, sulfate]	2.6 µM
FC(F)(F)c1cccc(Nc2nccc(-c3ccncc3)n2)c1 [4-(4-Pyridinyl)-N-[3-(trifluoromethyl)phenyl]-2-pyrimidinamine, sulfate]	< 48 µM
